Measured values from patent US10676429B2, “Sulfamoyl-arylamides and the use thereof as medicaments for the treatment of hepatitis B” (priority 2012, dated 2020).
pEC50: −log10 of the molar value.

Assays:
HBV [1] = test: Anti-HBV activity in HepG2.117 cell line (Tet-off, intracellular HBV DNA, realtime PCR); format: cell-based; conditions: HepG2.117 cells, 3 days of treatment, intracellular HBV DNA, read-out: HepG2 117 EC50
HBV [2] = test: Anti-HBV activity in stable transfected HepG2.2.15 cell line (HBV DNA from secreted virions, realtime PCR); format: cell-based; conditions: HepG2.2.15 cells, 6 days of treatment, secreted virion HBV DNA, read-out: HepG2 2.15 EC50
[3] = Cytotoxicity in HepG2 cells, 4 days, Resazurin assay; conditions: human, HepG2 cells
[4] = Hepatitis B virus, HepG2.117, 72 h
[5] = Hepatitis B virus, HepG2.2.15, 144 h

Compound | pEC50 (HBV [1]; [4]) | pEC50 (HBV [2]; [5]) | CC50 at 4 days [3] [nM] | pEC50 (HBV [1]) | pEC50 (HBV [2])
Cc1cc(NC(=O)c2cccc(S(=O)(=O)N[C@@H]3CCCC[C@H]3O)c2)ccc1F (racemic) [Compound 130] | 5.99 | 6.06 | > 25000 | – | –
Cc1cc(NC(=O)c2cccc(S(=O)(=O)N[C@@H]3CCCC[C@@H]3O)c2)ccc1F (racemic) [Compound 132] | 6.14 | 6.23 | > 25000 | – | –
COC(=O)N1CCCC(NS(=O)(=O)c2cccc(C(=O)Nc3ccc(F)c(C)c3)c2)C1 (racemic) [Compound 159] | – | 6.82 | > 25000 | – | –
COC(=O)N1CCCC(NS(=O)(=O)c2cccc(C(=O)Nc3ccc(F)c(C)c3)c2)C1 (racemic) [Compound 159a] | – | – | – | 6.07 | 6.77
COC(=O)N1CCCC(NS(=O)(=O)c2cccc(C(=O)Nc3ccc(F)c(C)c3)c2)C1 (racemic) [Compound 159b] | – | – | – | 6.64 | 6.80
Cc1cc(NC(=O)c2cccc(S(=O)(=O)NC3CC(=O)N(C)C3)c2)ccc1F (racemic) [Compound 179] | – | – | > 25000 | – | –
Cc1cc(NC(=O)c2cccc(S(=O)(=O)NC3CCCC(O)C3)c2)ccc1F (single isomer, unassigned) [Compound 134a, N-(4-fluoro-3-methyl-phenyl)-3-[[(1R,3S)-3-hydroxycyclohexyl]sulfamoyl]benzamide or N-(4-fluoro-3-methyl-phenyl)-3-[[(1S,3R)-3-hydroxycyclohexyl]sulfamoyl]benzamide] | – | – | – | 6.14 | 6.18
Cc1cc(NC(=O)c2cccc(S(=O)(=O)NC3CCCC(O)C3)c2)ccc1F (single isomer, unassigned) [Compound 134b, N-(4-fluoro-3-methyl-phenyl)-3-[[(1R,3S)-3-hydroxycyclohexyl]sulfamoyl]benzamide or N-(4-fluoro-3-methyl-phenyl)-3-[[(1S,3R)-3-hydroxycyclohexyl]sulfamoyl]benzamide] | – | – | – | 6.70 | 6.24
Cc1cc(NC(=O)c2cccc(S(=O)(=O)NC3CCCC(O)C3)c2)ccc1F (single isomer, unassigned) [Compound 134c, N-(4-fluoro-3-methyl-phenyl)-3-[[(1R,3R)-3 hydroxycyclohexyl]sulfamoyl]benzamide or N-(4-fluoro-3-methyl-phenyl)-3-[[(1S,3S)-3-hydroxycyclohexyl]sulfamoyl]benzamide] | – | – | – | 6.42 | 6.31
Cc1cc(NC(=O)c2cccc(S(=O)(=O)NC3CCCC(O)C3)c2)ccc1F (single isomer, unassigned) [Compound 134d, N-(4-fluoro-3-methyl-phenyl)-3-[[(1R,3R)-3 hydroxycyclohexyl]sulfamoyl]benzamide or N-(4-fluoro-3-methyl-phenyl)-3-[[(1S,3S)-3-hydroxycyclohexyl]sulfamoyl]benzamide] | – | – | – | 5.91 | 6.60
Cc1cc(NC(=O)c2cccc(S(=O)(=O)NC3Cc4ccccc4C3O)c2)ccc1F (single isomer, unassigned) [Compound 141a, N-(4-fluoro-3-methyl-phenyl)-3-[[(1S,2S)-1-hydroxyindan-2-yl]-sulfamoyl]benzamide or N-(4-fluoro-3-methyl-phenyl)-3-[[(1R,2R)-1-hydroxyindan-2-yl]sulfamoyl]benzamide] | – | – | > 25000 | 5.78 | 6.15
Cc1cc(NC(=O)c2cccc(S(=O)(=O)NC3CCC(O)C3)c2)ccc1F (single isomer, unassigned) [Compound 145a, N-(4-fluoro-3-methyl-phenyl)-3-[[(1R,3S)-3-hydroxycyclopentyl]sulfamoyl]benzamide or N-(4-fluoro-3-methyl-phenyl)-3-[[(1S,3R)-3-hydroxycyclopentyl]sulfamoyl]benzamide] | – | – | > 25000 | 6.68 | 6.85
O=C(Nc1cccc(C(F)(F)F)c1)c1cc(S(=O)(=O)NC2CCCCC2)ccc1F [Compound 7] | 6.25 | 6.18 | 11400 | – | –
Cc1cc(NC(=O)c2cccc(S(=O)(=O)NC3CCCC3)c2)ccc1F [Compound 11] | 6.38 | 7.00 | 19600 | – | –
Cc1cc(F)cc(NC(=O)c2cccc(S(=O)(=O)NC3CCCC3)c2)c1 [Compound 12] | 5.82 | 6.96 | 13300 | – | –
Cc1ccc(NC(=O)c2cccc(S(=O)(=O)NC3CCCC3)c2)cc1F [Compound 13] | 4.82 | 5.70 | 13800 | – | –
O=C(Nc1ccc(F)c(F)c1)c1cccc(S(=O)(=O)NC2CCCC2)c1 [Compound 14] | 6.44 | 7.05 | 11700 | – | –
O=C(Nc1ccccc1)c1csc(S(=O)(=O)NC2CCCCC2)n1 [Compound 64] | 5.11 | – | > 25000 | – | –
CC1(NS(=O)(=O)c2cccc(C(=O)Nc3ccc(F)cc3)c2)CCOCC1 [Compound 83] | 5.91 | 5.98 | – | – | –
Cc1cc(NC(=O)c2cccc(S(=O)(=O)NC3CCCC(O)C3)c2)ccc1F (stereo not shown) [Compound 134] | – | – | > 25000 | 6.24 | –
Cc1c(Br)cc(S(=O)(=O)N[C@H]2CCOC2)c(F)c1C(=O)Nc1ccc(F)c(F)c1 [Compound 187] | 6.02 | – | > 25000 | – | –
Cc1ccc(S(=O)(=O)N[C@H]2CCOC2)c(F)c1C(=O)Nc1ccc(F)c(F)c1 [Compound 188] | 6.62 | – | > 25000 | – | –
Cc1cc(NC(=O)c2c(C)ccc(S(=O)(=O)N[C@H]3CCOC3)c2F)ccc1F [Compound 189] | 6.46 | – | > 25000 | – | –
Cc1cc(NC(=O)c2c(C)c(Br)cc(S(=O)(=O)NC3(C)COC3)c2F)ccc1F [Compound 190] | 6.57 | – | > 25000 | – | –
Cc1ccc(S(=O)(=O)NC2(C)COC2)c(F)c1C(=O)Nc1cc(F)c(F)c(Cl)c1 [Compound 192] | 6.72 | – | > 25000 | – | –

Compound | pEC50 (HBV [1]; [4]) | pEC50 (HBV [2]; [5]) | CC50 at 4 days [3] [nM] | pEC50 (HBV [1]) | pEC50 (HBV [2])
Cc1ccc(S(=O)(=O)N[C@H](C)C(F)(F)F)c(F)c1C(=O)Nc1cc(F)c(F)c(Cl)c1 [Compound 193] | 7.00 | – | 13500 | – | –
Cc1cc(NC(=O)c2c(F)ccc(S(=O)(=O)N[C@H]3CCOC3)c2F)ccc1F [Compound 197] | 7.05 | – | > 25000 | – | –
O=C(Nc1ccc(F)c(Br)c1)c1c(F)ccc(S(=O)(=O)N[C@H]2CCOC2)c1F [Compound 198] | 6.82 | – | > 25000 | – | –
N#Cc1cc(NC(=O)c2c(F)ccc(S(=O)(=O)N[C@H]3CCOC3)c2F)ccc1F [Compound 199] | 6.37 | – | > 25000 | – | –
O=C(Nc1ccc(F)c(C(F)(F)F)c1)c1c(F)ccc(S(=O)(=O)N[C@H]2CCOC2)c1F [Compound 200] | 6.35 | – | > 25000 | – | –
CC(C)NS(=O)(=O)c1ccc(F)c(C(=O)Nc2ccc(F)c(F)c2)c1F [Compound 202] | 6.96 | – | > 25000 | – | –
CC(C)NS(=O)(=O)c1ccc(F)c(C(=O)Nc2cccc(C(F)(F)F)c2)c1F [Compound 203] | 6.62 | – | 16700 | – | –
Cc1cc(NC(=O)c2c(C)ccc(S(=O)(=O)NC3(C)COC3)c2F)ccc1F [Compound 204] | 7.05 | – | > 25000 | – | –
Cc1cc(NC(=O)c2c(C)ccc(S(=O)(=O)NC(C)(C)C)c2F)ccc1F [Compound 205] | 6.46 | – | > 25000 | – | –
Cc1ccc(S(=O)(=O)NC(C)(C)C)c(F)c1C(=O)Nc1ccc(F)c(F)c1 [Compound 206] | 6.19 | – | > 25000 | – | –
CC1(NS(=O)(=O)c2ccc(Cl)c(C(=O)Nc3ccc(F)c(C#N)c3)c2F)COC1 [Compound 207] | < 6.00 | – | > 25000 | – | –
CC1(NS(=O)(=O)c2ccc(Cl)c(C(=O)Nc3ccc(F)c(C(F)(F)F)c3)c2F)COC1 [Compound 208] | < 6.00 | – | > 25000 | – | –
Cc1cc(NC(=O)c2c(Cl)ccc(S(=O)(=O)NC3(C)COC3)c2F)cc(F)c1F [Compound 209] | 6.82 | – | > 25000 | – | –
CC1(NS(=O)(=O)c2ccc(Cl)c(C(=O)Nc3cc(F)c(F)c(Cl)c3)c2F)COC1 [Compound 210] | 6.34 | – | > 25000 | – | –
CC1(NS(=O)(=O)c2ccc(F)c(C(=O)Nc3ccc(F)c(F)c3)c2Cl)COC1 [Compound 211] | 6.19 | – | > 25000 | – | –
CC1(NS(=O)(=O)c2ccc(F)c(C(=O)Nc3ccc(F)c(C(F)(F)F)c3)c2Br)COC1 [Compound 212] | 5.14 | – | > 25000 | – | –
Cc1cc(NC(=O)c2c(Br)ccc(S(=O)(=O)NC3(C)COC3)c2F)ccc1F [Compound 213] | 6.55 | – | > 25000 | – | –
CC1(NS(=O)(=O)c2ccc(Br)c(C(=O)Nc3ccc(F)c(C#N)c3)c2F)COC1 [Compound 214] | < 6.00 | – | > 25000 | – | –
CC1(NS(=O)(=O)c2ccc(Br)c(C(=O)Nc3ccc(F)c(C(F)(F)F)c3)c2F)COC1 [Compound 215] | < 6.00 | – | > 25000 | – | –
Cc1cc(NC(=O)c2c(Br)ccc(S(=O)(=O)NC3(C)COC3)c2F)cc(F)c1F [Compound 216] | 6.54 | – | > 25000 | – | –
CC1(NS(=O)(=O)c2cccc(C(=O)Nc3ccc(F)c(C(F)(F)F)c3)c2F)COC1 [Compound 219] | 6.34 | – | > 25000 | – | –
Cc1cc(NC(=O)c2cccc(S(=O)(=O)NC(C)(C)C)c2F)ccc1F [Compound 221] | 6.89 | – | > 25000 | – | –
Cc1cc(NC(=O)c2cccc(S(=O)(=O)NC3(C)CCOC3)c2)ccc1F (stereo not shown) [Compound 223] | 6.68 | – | > 25000 | – | –
Cc1cc(NC(=O)c2cc(S(=O)(=O)NC3(C)COC3)ccc2Cl)ccc1F [Compound 232] | 6.51 | – | > 25000 | – | –
